Data on 31 compounds can be found in patent US10023575B2, “Cyclic ether derivatives of pyrazolo[1,5-a]pyrimidine-3-carboxyamide” (Boehringer Ingelheim International GmbH, priority 2015, dated 2018).

In general, IC50 refers to the concentration that gives 50% inhibition. As a reminder, the half-life is the time needed for the level to fall by half in the phase considered.

Series [1] in a line: Plasma protein binding with equilibrium dialysis, human plasma. The format is in vitro ADME. The note with it: equilibrium dialysis 2 hours 37° C.; for fraction unbound at 2 h, 1 µM: human, pooled human plasma (with NaEDTA), pH 7.4, human plasma, read-out: PPB HUM % BINDING (converted); for PPB HUM % BINDING: human plasma, 1.0 μM. From the text: (§1) Plasma Protein Binding (Determination of Human and Rat Plasma Protein Binding with Equilibrium Dialysis)
(§2) This equilibrium dialysis (ED) technique is used to determine the approximate in vitro fractional binding of test compounds to human and rat plasma proteins.
(§3) Dianorm Teflon dialysis cells (micro 0.2) are used. Each cell consists of a donor and an acceptor chamber, separated by an ultrathin semipermeable membrane with a 5 kDa molecular weight cutoff.
(§4) Stock solutions for each test compound are prepared in DMSO at 1 mM and diluted to a final concentration of 1.0 μM. The subsequent dialysis solutions are prepared in pooled human and rat plasma (with NaEDTA)
(§5) Aliquots of 200 μL dialysis buffer (100 mM potassium phosphate, pH 7.4) are dispensed into the buffer chamber. Aliquots of 200 μL test compound dialysis solution are dispensed into the plasma chambers. Incubation is carried out for 2 hours under rotation at 37° C.
(§6) At the end of the dialysis period, the dialysate is transferred into reaction tubes. The tubes for the buffer fraction contain 0.2 ml Acetonitril/water (80/20). Aliquots of 25 μl of the plasma dialysate are transferred into deep well plates and mixed with 25 μl Acetonitril/water (80/20), 25 μl buffer, 25 μl calibration solution and 25 μl Internal Standard solution. Protein precipitation is done by adding 200 μl Acetonitrile. Aliquots of 50 μl of the buffer dialysate are transferred into deep well plates and mixed with 25 μl blank plasma, 25 μl Internal Standard solution and 200 μl Acetonitril. Samples are measured on HPLC-MS/MS-Systems and evaluated with Analyst-Software.
(§7) Percent bound is calculated with the formula: % bound=(plasma concentration−buffer concentration/plasma concentration)×100 and % free is calculated as difference.

Series [2] in a line: Plasma protein binding with equilibrium dialysis, rat plasma. The note with it: rat, pooled rat plasma (with NaEDTA), pH 7.4, rat plasma, equilibrium dialysis 2 hours 37° C., read-out: PPB RAT % BINDING (converted). Format: in vitro ADME.
Source text: as §1, §2, §3, §4, §5, §6, §7
In general terms: In equilibrium dialysis free small molecules cross a membrane that holds back macromolecules.

A further series concerns the target PDE10 (Homo sapiens (Human), UniProt Q9Y233). The series can be described thus: Phosphodiesterase (PDE) 10 assay with fluorescent substrate (IMAP, fluorescence polarization). The note with it: labeled cAMP 30 nM. The format is biochemical. On the procedure:
(§8) The PDE reaction cleaves cAMP to AMP. The IMAP system (Molecular Device) using fluorescence polarization (FP) as detection principle was used to measure enzyme activity. A fluorescent labeled cAMP was used as substrate for the reaction, generating a labeled AMP. The fluorescent AMP binds specifically to the large M(III)-based nano-particles which reduces the rotational speed of the substrate and thus increases its polarization.
(§9) The inhibition of PDE 2A or 10 enzyme activity was assessed using IMAP-Phosphodiesterase-cAMP fluorescence labeled substrate (Molecular Devices, Order No. R7506), IMAP TR-FRET screening express (Molecular Devices, Order No. R8160, the TR-FRET component will not be used) and PDE 2A or PDE10 protein expressed upon baculovirus infection in SF9 cells. The cells were incubated after infection for ˜3 days and protein production was confirmed by Western Blot. The cells were collected by centrifugation and the pellet frozen in liquid nitrogen before it was resuspended in PBS containing 1% Triton X-100 and protease inhibitors. After 45 min incubation on ice, the cell debris was removed by centrifugation (13.000 rpm, 30 min).
(§10) All reactions were performed in 384 well plates, Perkin Elmer black optiplates and IMAP reaction buffer with 0.1% Tween20 (kit component)
(§11) Compounds were serial diluted in DMSO. With an intermediate dilution step with reaction buffer DMSO concentration was reduced to achieve 1% DMSO in the assay reaction. Setup of the assay started with 10 μl enzyme (˜10 ng/well, depending on prep. batch), 5 μl compound, reaction was started by addition of 5 μl labeled cAMP (30 nM, final concentration), immediately mixed for 15 seconds on a Eppendorf mixmate (2000 rpm) followed by an incubation at room temperature for 90 minutes in the dark. Reaction is stopped by adding of 60 μl binding buffer for FP/cAMP (kit component).
(§12) Each assay plate contained wells with vehicle controls (1% DMSO) for the measurement of non-inhibited reaction (=100% control) and wells without enzyme as 0% controls.
Background: Polarisation of emitted light reports the rotation of a fluorescent probe.

A further series concerns the target PDE 2A (Homo sapiens (Human), UniProt O00408). The series can be described thus: Phosphodiesterase (PDE) 2A assay with fluorescent substrate (IMAP, fluorescence polarization). Format: biochemical. The note with it: labeled cAMP 30 nM, read-out: PDE2 IC50. On the procedure: as §8, §9, §10, §11, §12
Series [3] in a line: Metabolic stability in pooled human liver microsomes. Format: in vitro ADME. As to conditions: 1 mg/mL protein, 1 μM compound, 37° C.; for half-life at 1 µM: human, pooled human liver microsomes, pH 7.6, human liver microsomes, read-out: Half-life t½ human; for Half-life t½ human: human liver microsomes. On the procedure: The metabolic degradation of the test compound was assayed at 37° C. with pooled liver microsomes from various species. The final incubation volume of 100 μl per time point contains TRIS buffer pH 7.6 at room temperature (0.1 M), magnesium chloride (5 mM), microsomal protein (1 mg/mL for human and dog, 0.5 mg/mL for other species) and the test compound at a final concentration of 1 μM. Following a short preincubation period at 37° C., the reactions were initiated by addition of betanicotinamide adenine dinucleotide phosphate, reduced form (NADPH, 1 mM), and terminated by transferring an aliquot into solvent after different time points. […] The half-life was determined by the slope of the semi-logarithmic plot of the concentration-time profile.

Sequence of PDE10 (Q9Y233 whole entry): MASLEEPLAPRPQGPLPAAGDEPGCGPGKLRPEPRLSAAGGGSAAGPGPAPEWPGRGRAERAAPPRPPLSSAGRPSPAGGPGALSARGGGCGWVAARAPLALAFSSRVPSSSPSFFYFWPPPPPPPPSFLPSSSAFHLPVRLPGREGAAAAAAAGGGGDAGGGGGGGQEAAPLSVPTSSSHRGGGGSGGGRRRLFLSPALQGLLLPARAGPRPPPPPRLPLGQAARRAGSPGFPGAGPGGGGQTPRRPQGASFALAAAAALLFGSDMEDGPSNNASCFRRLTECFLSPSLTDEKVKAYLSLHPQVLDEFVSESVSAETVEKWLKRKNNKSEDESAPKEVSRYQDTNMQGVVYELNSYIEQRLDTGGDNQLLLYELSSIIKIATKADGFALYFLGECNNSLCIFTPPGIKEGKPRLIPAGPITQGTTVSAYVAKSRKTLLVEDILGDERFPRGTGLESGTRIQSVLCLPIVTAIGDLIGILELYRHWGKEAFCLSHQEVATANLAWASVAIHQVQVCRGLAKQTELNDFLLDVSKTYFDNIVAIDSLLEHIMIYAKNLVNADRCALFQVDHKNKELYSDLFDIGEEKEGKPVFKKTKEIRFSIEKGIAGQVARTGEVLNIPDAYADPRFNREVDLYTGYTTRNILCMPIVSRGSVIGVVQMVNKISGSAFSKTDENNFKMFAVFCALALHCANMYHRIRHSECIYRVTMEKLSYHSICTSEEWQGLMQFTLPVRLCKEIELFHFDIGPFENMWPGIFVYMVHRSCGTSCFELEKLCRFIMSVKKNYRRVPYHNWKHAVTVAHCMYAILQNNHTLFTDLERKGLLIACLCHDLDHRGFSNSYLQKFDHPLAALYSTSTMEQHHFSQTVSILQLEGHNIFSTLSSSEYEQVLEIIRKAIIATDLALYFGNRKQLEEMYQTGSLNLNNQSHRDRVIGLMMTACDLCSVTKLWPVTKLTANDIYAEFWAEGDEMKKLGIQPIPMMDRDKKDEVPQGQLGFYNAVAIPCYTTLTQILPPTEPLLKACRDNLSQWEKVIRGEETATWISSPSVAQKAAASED
Sequence of PDE 2A (O00408 whole entry, species assumed): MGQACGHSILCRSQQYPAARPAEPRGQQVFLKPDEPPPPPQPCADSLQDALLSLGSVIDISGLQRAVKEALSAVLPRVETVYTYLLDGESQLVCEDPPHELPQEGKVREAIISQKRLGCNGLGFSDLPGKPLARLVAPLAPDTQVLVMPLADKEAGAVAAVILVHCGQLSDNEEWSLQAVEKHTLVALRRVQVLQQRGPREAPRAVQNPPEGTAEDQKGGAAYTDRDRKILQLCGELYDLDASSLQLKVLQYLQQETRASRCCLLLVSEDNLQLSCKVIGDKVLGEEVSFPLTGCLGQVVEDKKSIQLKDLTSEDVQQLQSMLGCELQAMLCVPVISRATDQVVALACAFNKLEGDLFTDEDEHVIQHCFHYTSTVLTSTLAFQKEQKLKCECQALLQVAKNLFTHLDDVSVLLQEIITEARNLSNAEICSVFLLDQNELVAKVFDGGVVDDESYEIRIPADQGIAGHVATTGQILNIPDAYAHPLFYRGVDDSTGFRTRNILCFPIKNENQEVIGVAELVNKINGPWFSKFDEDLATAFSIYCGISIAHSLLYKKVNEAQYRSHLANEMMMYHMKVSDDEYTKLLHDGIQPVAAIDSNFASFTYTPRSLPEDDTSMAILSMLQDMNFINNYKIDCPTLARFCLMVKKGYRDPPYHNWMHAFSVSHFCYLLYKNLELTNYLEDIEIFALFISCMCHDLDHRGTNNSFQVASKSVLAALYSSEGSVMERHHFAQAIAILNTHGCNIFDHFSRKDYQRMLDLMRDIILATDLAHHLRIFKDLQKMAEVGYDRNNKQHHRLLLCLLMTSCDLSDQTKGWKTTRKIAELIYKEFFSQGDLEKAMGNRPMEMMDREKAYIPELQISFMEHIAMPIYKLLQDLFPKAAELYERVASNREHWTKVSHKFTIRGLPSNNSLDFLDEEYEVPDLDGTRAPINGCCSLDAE

As to `Cc1cnc2c(C(=O)NC3(c4ccc(C(F)(F)F)cc4F)CCCOC3)cnn2c1` (racemic) [Example 31], the fraction unbound at 2 h, 1 µM is 0.047 in series [1] and 0.024 in series [2]. For the same compound, the IC50 against PDE10 was greater than 10000 nM; at PDE 2A, 30 nM.
On to `Cc1cnc2c(C(=O)NC3(c4ccc(C(F)(F)F)cc4F)CCOC3)cnn2c1` (racemic) [Example 35], for which the fraction unbound at 2 h, 1 µM in series [1] is 0.076; in series [2], 0.063. The IC50 at PDE10 was greater than 10000 nM; on PDE 2A, 31 nM.
`O=C(NC1(c2ccc(C(F)(F)F)cc2)CCOC1)c1cnn2cc(C3CC3)cnc12` (racemic) [Example 37]: the results for the fraction unbound at 2 h, 1 µM in series [1] and in series [2] were 0.056 and 0.065, respectively. For the same compound, the IC50 at PDE10 is greater than 10000 nM; on PDE 2A, 192 nM. Moreover, the half-life at 1 µM in series [3] is greater than 2.17 h.
Regarding `Cc1cnc2c(C(=O)NC3(c4ccc(C(F)(F)F)cc4F)CCOCC3O)cnn2c1` (racemic) [Example 46], the fraction unbound at 2 h, 1 µM was 0.329 in series [1] and 0.313 in series [2]. The compound also showed an IC50 at PDE10 greater than 10000 nM. Also, the half-life at 1 µM in series [3] was greater than 2.17 h.
With `Cc1nn2cc(C3CC3)cnc2c1C(=O)NC1(c2ccc(C(F)(F)F)nc2)CCOCC1O` (racemic) [Example 51], the fraction unbound at 2 h, 1 µM in series [1] is 0.531. The half-life at 1 µM in series [3] was greater than 2.17 h.
Consider `CC1(O)COCCC1(NC(=O)c1cnn2cc(C3CC3)cnc12)c1ccc(C(F)(F)F)cc1F` (racemic) [Example 53], for which the fraction unbound at 2 h, 1 µM in series [1] is 0.183.
As to `O=C(NC1(c2ccc(C(F)(F)F)cc2F)COCC1O)c1cnn2cc(C3CC3)cnc12` (single isomer, unassigned) [Example 68], the “PPB HUM % BINDING” value in series [1] amounted to 84.4%. Further, the IC50 against PDE10 was greater than 10000 nM; on PDE 2A, 24 nM. The “Half-life t½ human” value in series [3] was greater than 2.17 h.
Consider `O=C(NC1(c2ccc(C(F)(F)F)cc2F)COCC1O)c1cnn2cc(C3CC3)cnc12` (single isomer, unassigned) [Example 69], for which the “PPB HUM % BINDING” value in series [1] is listed as 90.7%. Moreover, the IC50 is greater than 10000 nM at PDE10 and 1740 nM on PDE 2A. For the same compound, the “Half-life t½ human” value in series [3] is 0.883 h.
For `CC1(O)COCCC1(NC(=O)c1cnn2cc(C3CC3)cnc12)c1ccc(C(F)(F)F)cc1F` (single isomer, unassigned) [Example 86a], the fraction unbound at 2 h, 1 µM in series [1] was 0.105; in series [2] it was 0.065.
For `Cc1nn2cc(C3CC3)cnc2c1C(=O)NC1(c2ccc(C(F)(F)F)nc2)CCOCC1O` (single isomer, unassigned) [Example 88b], the fraction unbound at 2 h, 1 µM in series [1] is 0.558. Moreover, the half-life at 1 µM in series [3] was greater than 2.17 h.
Consider `O=C(NC1(c2ccc(C(F)(F)F)cc2F)CCOCC1)c1cnn2cc(F)cnc12` [Example 3], for which the fraction unbound at 2 h, 1 µM in series [1] is 0.157. The IC50 is greater than 10000 nM at PDE10 and 266 nM at PDE 2A. In addition, the half-life at 1 µM in series [3] was found to be 1.2 h.
Take `O=C(NC1(c2ccc(C(F)(F)F)cc2)CCOCC1)c1cnn2cc(C3CC3)cnc12` [Example 8]: the IC50 on PDE10 is greater than 10000 nM; at PDE 2A it was 69 nM.
Regarding `Cc1cnc2c(C(=O)NC3(c4ccc(C(F)(F)F)cc4)CCOCC3)cnn2c1` [Example 9], the IC50 is greater than 10000 nM against PDE10 and 117 nM at PDE 2A.
With `Cc1nn2cc(C3CC3)cnc2c1C(=O)NC1(c2ccc3ccccc3n2)CCOCC1` [Example 11], the IC50 against PDE10 turned out to be 1470 nM; on PDE 2A, 297 nM.
Regarding `Cc1cnc2c(C(=O)NC3(c4ccc5ccccc5n4)CCOCC3)cnn2c1` [Example 12], the IC50 is greater than 10000 nM on PDE10 and 1650 nM at PDE 2A.
The matching figures for `O=C(NC1(c2ccc(Br)cc2)CCOCC1)c1cnn2cc(C3CC3)cnc12` [Example 13]: 9910 nM and 359 nM.
Regarding `O=C(NC1(c2ccc(OC(F)F)c(F)c2)CCOCC1)c1cnn2cc(C3CC3)cnc12` [Example 14], the IC50 stood at 8430 nM on PDE10 and 456 nM on PDE 2A.
The matching figures for `Cc1cnc2c(C(=O)NC3(c4ccc(OC(F)F)c(F)c4)CCOCC3)cnn2c1` [Example 15]: greater than 10000 nM and 746 nM.
For `O=C(NC1(c2ccc(Cl)c(F)c2)CCOCC1)c1cnn2cc(C3CC3)cnc12` [Example 16], the IC50 was greater than 10000 nM against PDE10 and 537 nM on PDE 2A.
The matching figures for `Cc1cnc2c(C(=O)NC3(c4ncc(C(F)(F)F)cc4F)CCOCC3)c(C)nn2c1` [Example 18]: 8630 nM and 129 nM.
Consider `Cc1cnc2c(C(=O)NC3(c4ncc(C(F)(F)F)cc4F)CCOCC3)cnn2c1` [Example 19], for which the results for the IC50 on PDE10 and at PDE 2A were greater than 10000 nM and 519 nM, respectively.
Turning to `O=C(NC1(c2ncc(C(F)(F)F)cc2F)CCOCC1)c1cnn2cc(C3CC3)cnc12` [Example 20], the IC50 on PDE10 is greater than 10000 nM; at PDE 2A, 172 nM.
On the same counts, the results for `Cc1cnc2c(C(=O)NC3(c4ccc(C(F)(F)F)cn4)CCOCC3)c(C)nn2c1` [Example 22] are 9920 nM and 119 nM.
The matching figures for `O=C(NC1(c2ccc(C(F)(F)F)cn2)CCOCC1)c1cnn2cc(C3CC3)cnc12` [Example 23]: greater than 10000 nM and 232 nM.
Consider `Cc1cnc2c(C(=O)NC3(c4ccc(C(F)(F)F)cn4)CCOCC3)cnn2c1` [Example 24], for which the figures for the IC50 against PDE10 and on PDE 2A were greater than 10000 nM and 754 nM, respectively.
On the same counts, the results for `Cc1cnc2c(C(=O)NC3(c4ccc(C(F)(F)F)nc4)CCOCC3)c(C)nn2c1` [Example 26] are greater than 10000 nM and 174 nM.
Take `O=C(NC1(c2ccc(C(F)(F)F)nc2)CCOCC1)c1cnn2cc(C3CC3)cnc12` [Example 27]: the IC50 is greater than 10000 nM at PDE10 and 534 nM on PDE 2A.
On the same counts, the results for `Cc1cnc2c(C(=O)NC3(c4ccc(C(F)(F)F)nc4)CCOCC3)cnn2c1` [Example 28] are greater than 10000 nM and 834 nM.
On the same counts, the results for `Cc1nn2cc(C3CC3)cnc2c1C(=O)NC1(c2cnc(C(F)(F)F)c(F)c2)CCOCC1` [Example 29] are 5930 nM and 661 nM.
On the same counts, the results for `O=C(NC1(c2ccc(C(F)(F)F)cc2F)CCOCC1=O)c1cnn2cc(C3CC3)cnc12` (stereo not shown) [Example 66] are greater than 10000 nM and 25 nM.
On to `Cc1cnc2c(C(=O)NC3(c4ccc(C(F)(F)F)cc4F)CCOCC3=O)cnn2c1` (stereo not shown) [Example 67], for which the IC50 against PDE10 was greater than 10000 nM; at PDE 2A, 50 nM.
